From patent publication US5773451A, “Substituted arylthioalkylthiopyridines” (BYK Gulden Lomberg Chemische Fabrik GmbH, priority 1993, dated 1998) come the findings set out here.

Converted amounts (≈) assume the structure as drawn.

This experiment relates to Helicobacter pylori. The experiment can be described thus: activity against Helicobacter pylori (MIC 50, Columbia agar, growth period of 4 days). The format is cell-based. The conditions noted are these: 96 h, Columbia agar (Oxoid), method of Iwahi et al., approximate values, read-out: Approx. MIC 50 value. An excerpt:
The compounds of formula I have been investigated in respect of their activity against Helicobacter pylori in accordance with the method described by Tomoyuki Iwahi et al. (Antimicrobial Agents and Chemo-therapy, 1991, 490-496) using Columbia agar (Oxoid) over a growth period of 4 days. The approximate MIC 50 values listed in the following Table 2 resulted from these tests for the compounds studied (the numbers stated for the compounds agree with the compound numbers in the description).
For the molecule `Cc1nnc(SCCCSc2ccnc(CSc3nc4ccccc4[nH]3)c2C)s1` [Compound 1], the MIC50 was approximately 0.1 µg/mL (≈ 0.218 µM).

For `Cc1c(SCCCSc2nncn2C)ccnc1CSc1nc2ccccc2[nH]1` [Compound 2, 2-{[[3-Methyl-4-(3-(4-methyl-1,2,4-triazol-3-yl-thio)-propylthio)-2-pyridinyl]methyl]thio}-1H-benzimidazole], the MIC50 is approximately 0.05 µg/mL (≈ 0.113 µM).

Regarding `Cc1c(SCCCSc2nccn2C)ccnc1CSc1nc2ccccc2[nH]1` [Compound 3, 2-{[[3-Methyl-4-(3-(1-methylimidazol-2-yl-thio)-propylthio)-2-pyridinyl]methyl]thio}-1H-benzimidazole], the MIC50 was approximately 0.05 µg/mL (≈ 0.113 µM).

As for `Cc1c(SCCCSc2nnc(N)s2)ccnc1CSc1nc2ccccc2[nH]1` [Compound 5, 2-{[[4-[3-(5-Amino-1,3,4-thiadiazol-2-yl-thio)-propylthio]-3-methyl-2-pyridinyl]methyl]thio}-1H-benzimidazole], the MIC50 was approximately 0.5 µg/mL (≈ 1.09 µM).

Regarding `Cc1c(SCCCSc2ncc[nH]2)ccnc1CSc1nc2ccccc2[nH]1` [Compound 6, 2-{[[4-[3-Imidazol-2-yl-thio-propylthio]-3-methyl-2-pyridinyl]methyl]thio}-1H-benzimidazole], the MIC50 is approximately 0.1 µg/mL (≈ 0.234 µM).

As to `Cc1c(SCCCSc2nnnn2C)ccnc1CSc1nc2ccccc2[nH]1` [Compound 8, 2-{[[3-Methyl-4-(3-(1-methyl-tetrazol-5-yl-thio)-propylthio)-2-pyridinyl]methyl]thio}-1H-benzimidazole], the MIC50 was approximately 0.05 µg/mL (≈ 0.113 µM).

As for `Cc1c(SCCCSc2nccs2)ccnc1CSc1nc2ccccc2[nH]1` [Compound 9, 2-{[[3-Methyl-4-(3-(thiazol-2-yl-thio)-propylthio)2-pyridinyl]methyl]thio}-1H-benzimidazole], the MIC50 was approximately 0.05 µg/mL (≈ 0.112 µM).

As to `Cc1c(SCCCSc2ccccn2)ccnc1CSc1nc2ccccc2[nH]1` [Compound 10, 2-{[[3-Methyl-4-(3-(pyridin-2-yl-thio)-propylthio)-2-pyridinyl]methyl]thio}-1H-benzimidazole], the MIC50 is approximately 0.05 µg/mL (≈ 0.114 µM).

As for `Cc1c(SCCCSc2ncccn2)ccnc1CSc1nc2ccccc2[nH]1` [Compound 11, 2-{[[3-Methyl-4-(3-(pyrimidin-2-yl-thio)-propylthio)-2-pyridinyl]methyl]thio}-1H-benzimidazole], the MIC50 was approximately 0.05 µg/mL (≈ 0.114 µM).

Consider `Cc1c(SCCCSc2nc3ccccc3[nH]2)ccnc1CSc1nc2ccccc2[nH]1` [Compound 12], for which the MIC50 was approximately 0.05 µg/mL (≈ 0.105 µM).

For the molecule `Cc1c(SCCCSc2ccccc2)ccnc1CSc1nc2ccccc2[nH]1` [Compound 13], the MIC50 was approximately 0.05 µg/mL (≈ 0.114 µM).

Regarding `Cc1ccnc(SCCCSc2ccnc(CSc3nc4ccccc4[nH]3)c2C)n1` [Compound 16, 2-{[[3-Methyl-4-[3-(4-methyl-pyrimidine-2-yl-thio)-propylthio]-2-pyridinyl]methyl]thio}-1H-benzimidazole], the MIC50 was approximately 0.05 µg/mL (≈ 0.11 µM).

Turning to `Cc1c(SCCCSc2nncs2)ccnc1CSc1nc2ccccc2[nH]1.Cl.Cl.Cl` [Compound 18, 2-{[[3-Methyl-4-(3-(1,3,4-thiadiazol-2-yl-thio)-propylthio)-2-pyridinyl]methyl]thio}-1H-benzimidazole trihydrochloride], the MIC50 is approximately 0.05 µg/mL.

Consider `Cc1c(SCCCSc2ccncc2)ccnc1CSc1nc2ccccc2[nH]1` [Compound 19, 2-{[[3-Methyl-4-(3-(pyridin-4-yl-thio)-propylthio)-2-pyridinyl]methyl]thio}-1H-benzimidazole], for which the MIC50 was approximately 0.05 µg/mL (≈ 0.114 µM).

In the case of `Cc1c(SCCCCSc2nnnn2C)ccnc1CSc1nc2ccccc2[nH]1` [Compound 24, 2-{[[3-Methyl-4-(4-(1-methyl-tetrazol-5-yl-thio)-butylthio)-2-pyridinyl]methyl]thio}-1H-benzimidazole], the MIC50 is approximately 0.05 µg/mL (≈ 0.109 µM).
